Measured values reported in patent publication US20210338661A1, “NEW USES OF A PURE 5-HT 6 RECEPTOR ANTAGONIST” (SUVEN LIFE SCIENCES LIMITED, priority 2017, published 2021).

Assays:
[1] = test system: ovariectomized female Wistar rats; assay: Object recognition task in ovariectomized rats (in vivo model for dementia due to menopause); design: species or system rat; details: SUVN-502 1, 3 and 10 mg/kg, p.o. one hour prior to evaluation, FIGS. 1 and 2
Procedure: Object Recognition Task (In Vivo Model for Dementia Due to Menopause) Bilateral ovariectomy surgery was carried out in 7-8 weeks old female rats. Briefly, animals were anesthetized using Avertin (2,2,2-tri bromo ethanol) at 150 mg/kg, i.p. and were lay down on the surgery table. A midline incision was given on the dorsal region below the rib cage and 1 cm lateral to the either side of midline, a small incision was given on fascia to locate the adipose fat supporting the ovaries. By slowly pulling out the fat tissue, the ovary is identified and excised following the uterine horn ligation with silk sutures. Fascia was also covered with sutures and the similar procedure was repeated on the other side. Superficial skin layers were sutured and gentamicin (15 mg/kg, s.c.) was given as antibiotic and meloxicam (1 mg/kg, i.m.) as analgesic with povidone iodine applied on superficial skin layers at last. Episodic memory which is a memory of autobiographical events contextual in relation to time, place etc. was assessed 4 weeks after the surgery using object recognition task. Object recognition task was carried out using black circular arenas (50 cm height×50 cm diameter) made of PVC laminates. […] Discriminative index was calculated as ratio of time spent exploring the novel object divided by sum of time spent exploring the novel object and familiar object in choice trial.

Aged rats = assay: Morris water maze task in aged rats (in vivo model for senile dementia); design: species or system rat; details: 10 mg/kg, p.o.
Procedure: Morris Water Maze Task (In Vivo Model for Senile Dementia): The water maze apparatus consisted of a circular pool (1.8 m diameter, 0.6 m high) constructed in black perspex (TSE, systems, Germany) filled with water (24° C.). The maze was positioned underneath a wide-angled video camera. A 16 cm diameter perspex platform, lying 1 cm below the water surface, was placed in the center of one of the four imaginary quadrants, which remained constant for all rats. The maze offered no intra-maze cues to guide the escape behavior, however, the training room offered several strong extra maze visual cues to aid escape learning. An automated tracking system (Videomot 2 (5.51), TSE systems, Germany) was employed to track animal and record the parameters. […] Aged rats (˜80 weeks old) were placed facing the wall of the maze and lowered gently, feet first into water. Rats were allowed to swim for 60 seconds to find the platform. If the platform was found during this time, the trial was stopped and rat was allowed to stay on platform for 10 seconds before being removed from the maze. If the platform was not found during the 60 seconds trial, rat was guided to the platform and allowed to stay on platform for 10 seconds before being removed from the maze. The rats were taken off the platform ensuring that the rat see the investigator's hand from the front before removal. They were dried gently with a towel. Each rat received 4 trials in a day. The maze has 8 starting points. On the first, third and fifth day the animals started from 1st, 3rd, 5th and 7th starting point and on the second and fourth day the animals started from 2nd, 4th, 6th and […]. […] Retention of the task was assessed on 10th day, during which each animal received a single 30 seconds probe trial. […] Latency to reach the platform (s), swim speed (cm/s) and path length (cm) were recorded during acquisition trials. Percentage time spent in target quadrant (quadrant in which platform was placed during acquisition training) and swim speed (cm/s) were recorded for the probe trial.

CD1 mice = assay: Resident intruder task (in vivo model for aggression due to dementia); design: species or system mouse; details: 1, 3 and 10 mg/kg, p.o., 60 minutes prior to the trial, FIG. 4
Procedure: Resident Intruder Task (In Vivo Model for Aggression Due to Dementia): Male CD1 mice of weight 20-35 g (Resident), 15-25 g (Intruder) and ovariectomized female mice (20-25 g) were used. Resident mice were habituated individually with ovariectomized female mice in each cage. β-estradiol at a dose of 0.2 mg/kg, s.c. was administered to female mice during habituation. Intruders were habituated socially for 1 week. On day 1 and day 2, intruder was exposed to resident mice in resident's home cage for a period of 10 minutes and duration of attack was recorded. During this exposure period, female mice were removed from the cage. On day 4, animals were randomized based on their duration of attack and respective treatments were administered. […] After post dose interval, resident mice were exposed to same intruder for 10 min and duration of attack was recorded.

BCCL rats = assay: Contextual fear conditioning in bilateral common carotid artery ligated rats (in vivo model for vascular dementia); design: species or system rat; details: 3 and 10 mg/kg, p.o., 60 min post dose, FIG. 5
Source text: Contextual Fear Conditioning (In Vivo Model for Vascular Dementia): Male Wistar rats of age 2-3 months were used. Rats were induced vascular dementia by surgical procedure, which involves bilateral common carotid artery ligation (BCCL). Briefly, rats were anaesthetized using 2-5% isoflurane gaseous anesthesia. A dorsal incision was made near the neck region and two bilateral common carotid arteries were exposed. Both the arteries were separated from their sheaths and vagal nerves, and permanently ligated using 4-0 silk sutures. Sham animals were subjected to surgery except for ligation. After an induction period of 14 days, rats were examined in fear conditioning task. On day 1, rats were placed in the behavioral chamber and allowed to acclimatize for 1 min. Post acclimatization rats received a conditioned stimulus (CS) (tone for 10 sec) followed by an unavoidable foot shock (unconditioned stimulus (US): electric shock of 0.4 mA for 1 sec). Following a 40 sec interval between each administration, tone and shock were repeated to deliver a total of six CS-US pairings. […] After post dose interval of 60 min, animals were scored for the duration of freezing without shock stimulus. Shocking and scoring was controlled by Freeze frame software.

Male Wistar rats = assay: Object recognition task in doxorubicin-treated rats (in vivo model for chemotherapy-induced cognitive impairment); design: species or system rat; details: DOX 2.5 mg/kg, i.p. treated male Wistar rats; SUVN-502 1 and 10 mg/kg, p.o.; FIG. 6
Procedure: Male Wistar rats (230-280 g) were used as experimental animals. Four animals were housed in each cage. Rats were acclimatized for 7 days (Days 1-7) to the laboratory conditions. Chemotherapy-induced cognitive impairment was induced by injecting doxorubicin (DOX) at 2.5 mg/kg, i.p. once in every 5 days up to 8 cycles (days 8-49). […] On experimental day 50, following 60 min of formulation dosing, animals were habituated to the arenas for 45 min. On day 51, animals were treated with their respective formulations 60 min prior to the familiarization trial (T1) during which rats was presented with two similar objects i.e., silver Milton flasks (a1 and a2) for 3 min. After an interval of 30 min, rats were subjected to choice trial (T2), with one familiar (silver, a3) and one novel (red, b) object for a period of 3 min. During the T1 and T2 trials, exploration time of each object (defined as sniffing, licking, chewing or having moving vibrissae whilst directing the nose towards the object at a distance of less than 1 cm) were recorded separately by hand held stop watch. • Reference: Behavioural Brain Research, 1988, 31, 47-59.

Row | Compound | effect on object memory deficits [1] | path length versus vehicle treated group (Aged rats; aged rats (~80 weeks old), acquisition days 3, 4 and 5, p<0.05, p<0.01) | target latency versus vehicle treated group (Aged rats; aged rats, days 3, 4 and 5, statistically significant (p<0.05, p<0.01) only on day 3 and 5) | time in the target quadrant during the probe trial versus vehicle (Aged rats; aged rats, probe trial on 10th day, p<0.05) | aggression levels (duration of attack) (CD1 mice) | memory (duration of freezing) (BCCL rats) | novel object recognition (exploration time, novel versus familiar object) (Male Wistar rats)
1 | COc1ccc2c(c1)c(CN1CCN(C)CC1)cn2S(=O)(=O)c1ccccc1Br [SUVN-502, 1-[(2-Bromophenyl)sulfonyl]-5-methoxy-3-[(4-methyl-1-piperazinyl)methyl]-1H-indole dimesylate monohydrate] | reversed the object memory deficits | significantly lesser | also lesser | more time in the target quadrant | decreased the aggression levels | improved the memory | increased novel object recognition
2 | COc1cc2c(cc1OC)C(=O)C(CC1CCN(Cc3ccccc3)CC1)C2 (centres unmarked) [donepezil, reference compound] | did not reverse the object memory deficits |  |  |  |  |  | 
